Source: US20240091318A1, “COMBINATION THERAPY COMPRISING LONG ACTING GLP-1/GLUCAGON AND NPY2 RECEPTOR AGONISTS” (Boehringer Ingelheim International GmbH, priority 2022, published 2024)

Assays:
[1] = Effect on acute food intake (AFI) in normal NMRI mice; assay type: in vivo; settings: male NMRI mice, 10 nmol/kg s.c. once, % vs. vehicle group
Method: Effect on Acute Food Intake in Normal NMRI Mice
Male NMRI mice were obtained from Charles River (Charles River, Research Models & Services Germany GmbH) or from JanVier (JanVier Labs, France) at 5 weeks of age. […] Room temperature was controlled to 21° C.±1° C., with 60%±20% humidity.
Animals were transferred 5-7 days before the start of the study to a real-time food intake monitoring system, HM-2 system (MBRose, Denmark), to allow acclimatization to experimental conditions. As the animals were uniquely identified with microchips, each individual animal was identified by its microchip upon entry and exit from the food channel. Randomization of the mice for each study group (n=7-8) was based on body weight measured the day before the start of the study. A vehicle-treated (50 mM phosphate buffer pH7 with 5% Mannitol) group was included in each experiment. Six hours before the start of the night phase animals were fasted. One hour before the dark phase animals were dosed once subcutaneously (10 nmol/kg) with test peptide. […] The food intake of the treated groups was normalized (in %) to the average food intake of the group receiving vehicle (Table 1). Statistical significance was evaluated using One-way analysis of variance with Turkey's multiple comparison test. P<0.05 was considered statistically significant.

[2] = Effect on body weight loss and food intake in wildtype Diet Induced Obesity (DIO) mice; assay type: in vivo; settings: for BW 30 nmol/kg 5 day (body weight loss vs. vehicle group): 30 nmol/kg s.c. once daily
Source text: Effect on Body Weight Loss in Wildtype Diet Induced Obesity Mice
Male C57BL6/J pre-fed on 60% high fat diet were obtained from The Jackson Laboratories at >16 weeks of age. Upon arrival of the Diet Induced Obesity (DIO) mice, the mice where single housed to obtain accurate and individual food intake measurements of each animal and assigned an animal number. […] During the entire study animals had ad libitum access to food and water.
Before start of treatment a stratified randomization was performed based on the body weight measured in week −1 prior study start. At study start the age of mice was around 20 weeks. Bodyweight and food intake were measured daily before compound administration. Animals were dosed around one hour before start of the night phase by subcutaneous injection of 30 nmol/kg once daily for 5 till 28 days depending on the experiment. Control animals were dosed by subcutaneous injection daily with vehicle.

Row | Structure (SMILES) | AFI 10 nmol/kg 24 h (food intake normalized to vehicle group) [1] [%] | BW 30 nmol/kg 5 day (body weight loss vs. vehicle group) [2] [%] | body weight lowering efficacy (% BW), combination with Compound I compared to combination with semaglutide ([2]; once daily (FIGS. 6A, 8A vs. 5A, 7A)) | duration of food intake reduction, combination with Compound I vs. combination with semaglutide ([2]; once daily (FIGS. 6B, 8B vs. 5B, 7B)) | total food intake, combination with Compound I ([2]; once daily, area under the curve of food intake (FIGS. 6D, 8D)) | body weight loss in combination with Compound I ([2]; once daily, combination with Compound I (FIGS. 6A, 8A, 10A)) | effect on body weight in combination with semaglutide ([2]; once daily, combination with semaglutide (FIGS. 5A, 7A, 9A))
1 | CC(C)CC(=O)N[C@@H](C)C(=O)N1CCC[C@H]1C(=O)N[C@@H](C)C(=O)N[C@@H](CCCCNC(=O)COCCOCCNC(=O)COCCOCCNC(=O)CC[C@H](NC(=O)CCCCCCCCCCCCCCCCC(=O)O)C(=O)O)C(=O)N1CCC[C@H]1C(=O)N[C@@H](CCC(=O)O)C(=O)N[C@@H](CCC(=O)O)C(=O)N[C@@H](CC(=O)O)C(=O)N[C@@H](C)C(=O)N[C@H](C(=O)N1CCC[C@H]1C(=O)N[C@@H](CCC(=O)O)C(=O)N[C@@H](CCC(=O)O)C(=O)N[C@@H](CC(C)C)C(=O)N[C@@H](CCC(N)=O)C(=O)N[C@@H](CCCNC(=N)N)C(=O)N[C@@H](Cc1ccc(O)cc1)C(=O)N[C@@H](Cc1ccc(O)cc1)C(=O)N[C@H](C(=O)N[C@@H](CO)C(=O)N[C@@H](CC(C)C)C(=O)N[C@@H](CCCNC(=N)N)C(=O)N[C@@H](Cc1c[nH]cn1)C(=O)N[C@@H](Cc1ccc(O)cc1)C(=O)N[C@@H](Cc1ccc(O)cc1)C(=O)N[C@@H](CC(N)=O)C(=O)N[C@@H](Cc1c[nH]c2ccccc12)C(=O)N[C@@H](CC(C)C)C(=O)N[C@H](C(=O)N[C@@H](CCCNC(=N)N)C(=O)N[C@@H](CCC(N)=O)C(=O)N[C@@H](CCCNC(=N)N)C(=O)N[C@@H](Cc1ccc(O)cc1)C(N)=O)[C@@H](C)O)C(C)C)[C@@H](C)O [Compound A, N{alpha-4}-(3-methylbutanoyl)-N{epsilon-7}-[2-(2-{2-[2-(2-{2-[(4S)-4-carboxy-4-(17-carboxyheptadecanamido)butanamido]ethoxy}ethoxy)acetamido]ethoxy}ethoxy)acetamido]-[4A,6A,7K,9E,13T,18Q,22V,28Y,30W,31L]hPYY(4-36)] | 39 | 6.7 | – | – | – | – | –
2 | CC[C@H](C)[C@H](NC(=O)[C@H](CCC(=O)O)NC(=O)[C@H](CCC(=O)O)NC(=O)[C@@H]1CCCN1C(=O)[C@H](CO)NC(=O)[C@H](C)NC(=O)[C@H](CC(=O)O)NC(=O)[C@H](CCC(=O)O)NC(=O)[C@H](CCC(=O)O)NC(=O)[C@@H]1CCCN1C(=O)[C@H](CCCCNC(=O)COCCOCCNC(=O)COCCOCCNC(=O)CC[C@H](NC(=O)CCCCCCCCCCCCCCCCC(=O)O)C(=O)O)NC(=O)[C@H](C)NC(=O)[C@@H]1CCCN1C(=O)[C@H](C)NC(=O)CC(C)C)C(=O)N[C@@H](CCC(N)=O)C(=O)N[C@@H](CCCNC(=N)N)C(=O)N[C@@H](Cc1ccc(O)cc1)C(=O)N[C@@H](Cc1ccc(O)cc1)C(=O)N[C@H](C(=O)N[C@@H](CO)C(=O)N[C@@H](CC(C)C)C(=O)N[C@@H](CCCNC(=N)N)C(=O)N[C@@H](Cc1c[nH]cn1)C(=O)N[C@@H](Cc1ccc(O)cc1)C(=O)N[C@@H](Cc1ccc(O)cc1)C(=O)N[C@@H](CC(N)=O)C(=O)N[C@@H](Cc1c[nH]c2ccccc12)C(=O)N[C@@H](CC(C)C)C(=O)N[C@H](C(=O)N[C@@H](CCCNC(=N)N)C(=O)N[C@@H](CCC(N)=O)C(=O)N[C@@H](CCCNC(=N)N)C(=O)N[C@@H](Cc1ccc(O)cc1)C(N)=O)[C@@H](C)O)C(C)C [Compound E, N{alpha-4}-(3-methylbutanoyl)-N{epsilon-7}-[2-(2-{2-[2-(2-{2-[(4S)-4-carboxy-4-(17-carboxyheptadecanamido)butanamido]ethoxy}ethoxy)acetamido]ethoxy}ethoxy)acetamido]-[4A,6A,7K,9E,17I,18Q,22V,28Y,30W,31L]hPYY(4-36)] | 48 | 7.3 | greater body weight lowering efficacy | longer-lasting effect on food intake | pronounced total food intake reduction | Synergistic body weight loss | synergistic effect
3 | CC[C@H](C)[C@H](NC(=O)[C@H](CCC(=O)O)NC(=O)[C@H](CCC(=O)O)NC(=O)[C@@H]1CCCN1C(=O)[C@@H](NC(=O)[C@H](C)NC(=O)[C@H](CC(=O)O)NC(=O)[C@H](CCC(=O)O)NC(=O)[C@H](CCC(=O)O)NC(=O)[C@@H]1CCCN1C(=O)[C@H](CCCCNC(=O)COCCOCCNC(=O)COCCOCCNC(=O)CC[C@H](NC(=O)CCCCCCCCCCCCCCCCC(=O)O)C(=O)O)NC(=O)[C@H](CCC(=O)O)NC(=O)[C@@H]1CCCN1C(=O)[C@H](C)NC(=O)CC(C)C)[C@@H](C)O)C(=O)N[C@@H](CCC(N)=O)C(=O)N[C@@H](CCCNC(=N)N)C(=O)N[C@@H](Cc1ccc(O)cc1)C(=O)N[C@@H](Cc1ccc(O)cc1)C(=O)N[C@H](C(=O)N[C@@H](CO)C(=O)N[C@@H](CC(C)C)C(=O)N[C@@H](CCCNC(=N)N)C(=O)N[C@@H](Cc1c[nH]cn1)C(=O)N[C@@H](Cc1ccc(O)cc1)C(=O)N[C@@H](Cc1ccc(O)cc1)C(=O)N[C@@H](CC(N)=O)C(=O)N[C@@H](Cc1c[nH]c2ccccc12)C(=O)N[C@@H](CC(C)C)C(=O)N[C@H](C(=O)N[C@@H](CCCNC(=N)N)C(=O)N[C@@H](CCC(N)=O)C(=O)N[C@@H](CCCNC(=N)N)C(=O)N[C@@H](Cc1ccc(O)cc1)C(N)=O)[C@@H](C)O)C(C)C [Compound G, N{alpha-4}-(3-methylbutanoyl)-N{epsilon-7}-[2-(2-{2-[2-(2-{2-[(4S)-4-carboxy-4-(17-carboxyheptadecanamido)butanamido]ethoxy}ethoxy)acetamido]ethoxy}ethoxy)acetamido]-[4A,7K,9E,13T,17I,18Q,22V,28Y,30W,31L]hPYY(4-36)] | 44 | 10.6 | – | – | – | – | –
4 | CC[C@H](C)[C@H](NC(=O)[C@H](CCC(=O)O)NC(=O)[C@H](CCC(=O)O)NC(=O)[C@@H]1CCCN1C(=O)[C@H](CO)NC(=O)[C@H](C)NC(=O)[C@H](CC(=O)O)NC(=O)[C@H](C)NC(=O)[C@H](CCC(=O)O)NC(=O)[C@@H]1CCCN1C(=O)[C@H](CCCCNC(=O)COCCOCCNC(=O)COCCOCCNC(=O)CC[C@H](NC(=O)CCCCCCCCCCCCCCCCC(=O)O)C(=O)O)NC(=O)[C@H](CCC(=O)O)NC(=O)[C@@H]1CCCN1C(=O)[C@H](C)NC(=O)CC(C)C)C(=O)N[C@@H](CCC(N)=O)C(=O)N[C@@H](CCCNC(=N)N)C(=O)N[C@@H](Cc1ccc(O)cc1)C(=O)N[C@@H](Cc1ccc(O)cc1)C(=O)N[C@H](C(=O)N[C@@H](CO)C(=O)N[C@@H](CC(C)C)C(=O)N[C@@H](CCCNC(=N)N)C(=O)N[C@@H](Cc1c[nH]cn1)C(=O)N[C@@H](Cc1ccc(O)cc1)C(=O)N[C@@H](Cc1ccc(O)cc1)C(=O)N[C@@H](CC(N)=O)C(=O)N[C@@H](Cc1c[nH]c2ccccc12)C(=O)N[C@@H](CC(C)C)C(=O)N[C@H](C(=O)N[C@@H](CCCNC(=N)N)C(=O)N[C@@H](CCC(N)=O)C(=O)N[C@@H](CCCNC(=N)N)C(=O)N[C@@H](Cc1ccc(O)cc1)C(N)=O)[C@@H](C)O)C(C)C [Compound J, N{alpha-4}-(3-methylbutanoyl)-N{epsilon-7}-[2-(2-{2-[2-(2-{2-[(4S)-4-carboxy-4-(17-carboxyheptadecanamido)butanamido]ethoxy}ethoxy)acetamido]ethoxy}ethoxy)acetamido]-[4A,7K,9E,10A,17I,18Q,22V,28Y,30W,31L]hPYY(4-36)] | 29 | 12.2 | – | – | – | – | –
